The source of these data is patent US10676471B2, “Cycloalkyl-linked diheterocycle derivatives” (Pfizer Inc., priority 2014, dated 2020).

Usually IC50 stands for the midpoint of a concentration-inhibition curve. A high value points to weaker potency in that assay.

The assay concerns BT20 Cell. Put plainly: Cancer Cell Lysate Total L-Glutamate Assay. The class given is cell-based. Particulars: Homo sapiens, BT-20, 2 h, total L-glutamate in cell lysate, BT20 cells, 2 hour incubation with test compound. In a few lines:
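BT20 and other cancer lines at ~80% confluence were given fresh L-glutamine-containing medium, then treated with serially diluted compound (0.5% DMSO) for 2 hours at 37° C. Washed cells were lysed by freeze-thaw and sonication. Lysate glutamate was measured via glutamate oxidase/HRP/50 μM Amplex Red fluorescence (ex 530-560, em 585 nm); IC50 by four-parameter logistic fit.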

`O=C(Cc1ccccn1)Nc1nnc(C2CCCC(c3nnc(NC(=O)Cc4ccccn4)s3)C2)s1` (racemic) [Example 139, N,N′-[cyclohexane-1,3-diyldi-1,3,4-thiadiazole-5,2-diyl]bis[2-(pyridin-2-yl)acetamide]] registered a half-inhibitory concentration (IC50) of 196 nM.

`O=C(Cc1ccccn1)Nc1ccc(C2CCC(Cc3nnc(NC(=O)Cc4ccccn4)s3)C2)nn1` (racemic) [Example 26, 2-(pyridin-2-yl)-N-{5-[(3-{6-[(pyridin-2-ylacetyl)amino]pyridazin-3-yl}cyclopentyl)methyl]-1,3,4-thiadiazol-2-yl}acetamide] displayed a half-maximal inhibitory concentration (IC50) of 1.3 nM.

Turning to `O=C(Cc1ccccc1)Nc1ccc(C[C@@H]2CC[C@H](c3nnc(NC(=O)Cc4ccccn4)s3)C2)nn1` [Example 80, 2-phenyl-N-(6-{[(1R,3S)-3-{5-[(pyridin-2-ylacetyl)amino]-1,3,4-thiadiazol-2-yl}cyclopentyl]methyl}pyridazin-3-yl)acetamide], it took 0.1 nM to reach half-maximal inhibition (IC50).

`O=C(Cc1ccccn1)Nc1ccc(C[C@H]2CC[C@@H](c3nnc(NC(=O)Cc4ccccn4)s3)C2)nn1` (single isomer, unassigned) [Example 71, 2-(pyridin-2-yl)-N-{5-[(cis)-3-({6-[(pyridin-2-ylacetyl)amino]pyridazin-3-yl}methyl)cyclopentyl]-1,3,4-thiadiazol-2-yl}acetamide] gave a concentration for half-maximal inhibition (IC50) of 2.7 nM.

For the compound `CC(=O)Nc1nnc([C@@H]2CC[C@H](Cc3nnc(NC(=O)Cc4ccc(C)nc4)s3)C2)s1` (single isomer, unassigned) [Example 54, N-[5-({(cis)-3-[5-(acetylamino)-1,3,4-thiadiazol-2-yl]cyclopentyl}methyl)-1,3,4-thiadiazol-2-yl]-2-(6-methylpyridin-3-yl)acetamide], the half-inhibitory concentration (IC50) stood at 1280 nM.

For the compound `CCC(=O)Nc1nnc([C@H]2CC[C@@H](Cc3ccc(NC(=O)Cc4ccccn4)nn3)C2)s1` [Example 119, N-{5-[(1S,3R)-3-({6-[(pyridin-2-ylacetyl)amino]pyridazin-3-yl}methyl)cyclopentyl]-1,3,4-thiadiazol-2-yl}propanamide], the half-inhibitory concentration (IC50) worked out at 0.2 nM.
